Measured values from patent US20080262097A1, “Formulations” (priority 2005, published 2008).
≈ marks a conversion by molar mass, not a printed value. Read-outs that look alike come from different tables or passages of the source.

Experiments:
S. aureus CPHL EMRSA 16 = test: MBC assay; format: cell-based; conditions: Staphylococcus aureus; S. aureus CPHL EMRSA 16 (resistance Met/β-lactams)
Method: (§1) Other staphylococcal strains were also tested, as described in Example 5 below. These included certain antibiotic resistant staphylococci, such as the methicillin resistant S. aureus (MRSA) strains EMRSA-15 and EMRSA-16, both available from the Central Public Health Laboratory (CPHL), Colindale, UK. These strains are resistant not only to all beta-lactams but also to a number of other antibiotics in clinical use, making them a serious threat to human health. They are also responsible for the majority (>95%) of hospital-acquired MRSA infections in the UK.
(§2) The staphylococci and enterococci were cultured and maintained on Mueller-Hinton Medium (agar and broth) at pH 7.2; they were incubated aerobically at 37° C. for 24 hours.
(§3) This assay, normally carried out after an MIC assay, determines the minimum concentration of a compound that is lethal to the micro-organism being tested.
(§4) These samples were then individually sub-cultured on non-selective agar medium, under the incubation conditions described above. Following incubation they were examined visually for bacterial growth.

S. aureus CPHL EMRSA 15 = test: MBC assay; format: cell-based; conditions: Staphylococcus aureus
Method: as §1, §2, §3, §4

E faecalis ATCC 29212 = test: MIC assay; format: cell-based; conditions: Enterococcus faecalis, ATCC29212
From the text: 3. Enterococcus faecalis ATCC 29212—this is a Gram-positive bacterium belonging to the genus Enterococcus. Enterococci have similar properties to streptococci, but differ in their ability to grow on bile-salt containing media such as MacConkey's Agar. Their principal habitat is the mammalian gastrointestinal tract. They cause a number of important infections including endocarditis, urinary tract infections and abscesses. In the context of skin, they are frequently isolated from wound infections. Unlike the streptococci, the enterococci have developed widespread resistance to penicillin. More recently, E. faecalis and E. faecium strains have also developed resistance to the glycopeptide antibiotics such as vancomycin. Vancomycin-Resistant Enterococci (VRE), principally vanA strains of E. faecium, now represent a serious healthcare-acquired infection hazard in the USA, Japan and Western Europe. […]
This is a standard international method for quantitatively assessing the antimicrobial activity of a compound in a liquid medium. […]
The wells were inoculated with a liquid suspension of freshly grown micro-organism and incubated under the conditions described above. […] The MIC value was recorded as the lowest concentration of test compound required to inhibit microbial growth, ie, the lowest concentration for which the liquid in the well remained clear. […]

P. acnes PRP-068 = test: MIC assay; format: cell-based, Propionibacterium acnes; conditions: Cutibacterium acnes, PRP068; P. acnes PRP-068 (resistance Ery)
Method: (§5) The Propionibacterium spp organisms were cultured and maintained on Wilkins-Chalgren Anaerobe Medium (agar and broth) at pH 6.0; cultures were incubated anaerobically at 37° C. for 72 hours.
(§6) This is a standard international method for quantitatively assessing the antimicrobial activity of a compound in a liquid medium. The method used a 96-well microtitre plate, capable of holding about 200 μl of liquid per well. […] The culture media were as described above for the relevant test organisms.
(§7) The wells were inoculated with a liquid suspension of freshly grown micro-organism and incubated under the conditions described above. After incubation, the microtitre plate was examined visually (with the aid of a light box) for cell pellets in and/or opaque wells, which would indicate microbial growth. The MIC value was recorded as the lowest concentration of test compound required to inhibit microbial growth, ie, the lowest concentration for which the liquid in the well remained clear.
(§8) The assays were conducted in duplicate and included both negative (culture medium only) and positive (culture medium, diluting solvent and inoculum) controls.

P. acnes PRP-102 = test: MIC assay; format: cell-based, Propionibacterium acnes; conditions: Cutibacterium acnes, PRP102; P. acnes PRP-102 (resistance Tet/MLS)
Method: as §5, §6, §7, §8

P. acnes PRP-008 = test: MIC assay; format: cell-based, Propionibacterium acnes; conditions: Cutibacterium acnes, PRP008; P. acnes PRP-008 (resistance Clin)
Method: as §5, §6, §7, §8

[1] = tested on: Staphylococcus xylosus ATCC 29971; test: Disc diffusion assay (DDA); format: cell-based; conditions: zone diameter, 200 μg per disc
Method: as §2
(§9) A sterile paper disc was impregnated with a sample of the test compound and a minimum of 30 minutes allowed for the solvents to evaporate as far as possible. The disc was then placed on an agar plate onto which the test micro-organism had been inoculated. The plate was then incubated under the conditions described above, following which it was examined visually for signs of bacterial growth. If the test compound had antimicrobial activity, a circular zone of no growth would be obtained around the disc. The diameter of this zone of “inhibition” was measured using a ProtoCOL™ automated zone sizer (Synbiosis, Cambridge, UK). In general, a greater diameter and/or area of the zone of inhibition indicates a greater antimicrobial activity in the relevant test compound, although other factors such as test compound mobility through the agar gel may also influence the result.
(§10) The area of the zone of inhibition was calculated from the measured zone diameter (D) using the formula π(D/2)^2.

[2] = tested on: Staphylococcus simulans ATCC 27848; test: Disc diffusion assay (DDA); format: cell-based; conditions: zone diameter, 200 μg per disc
Method: as §2, §9, §10

[3] = tested on: Staphylococcus haemolyticus ATCC 29970; test: Disc diffusion assay (DDA); format: cell-based; conditions: zone diameter, 200 μg per disc
Method: as §2, §9, §10

[4] = tested on: Staphylococcus hominis ATCC 27844; test: Disc diffusion assay (DDA); format: cell-based; conditions: zone diameter, 200 μg per disc
Method: as §2, §9, §10

[5] = tested on: Staphylococcus warneri ATCC 27836; test: Disc diffusion assay (DDA); format: cell-based; conditions: zone diameter, 200 μg per disc
Method: as §2, §9, §10

[6] = tested on: Staphylococcus capitis ATCC 27840; test: Disc diffusion assay (DDA); format: cell-based; conditions: zone diameter, 200 μg per disc
Method: as §2, §9, §10

[7] = tested on: Staphylococcus cohnii ATCC 29974; test: Disc diffusion assay (DDA); format: cell-based; conditions: zone diameter, 200 μg per disc
Method: as §2, §9, §10

[8] = tested on: Staphylococcus auricularis ATCC 33753; test: Disc diffusion assay (DDA); format: cell-based; conditions: zone diameter, 200 μg per disc
Method: as §2, §9, §10

[9] = tested on: S. epidermidis (NCTC 11047); test: Disc diffusion assay (DDA); format: cell-based; conditions: zone diameter, 200 μg per disc
Method: as §2, §9, §10

[10] = tested on: S. saprophyticus NCTC 7292; test: Disc diffusion assay (DDA); format: cell-based; conditions: zone diameter, 200 μg per disc
Method: as §2, §9, §10

[11] = tested on: Staphylococcus aureus ATCC 12600; test: Disc diffusion assay (DDA); format: cell-based; conditions: zone diameter, 200 μg per disc
Method: as §2, §9, §10

P. granulosum NCTC 11865 = test: MIC assay; format: cell-based; conditions: P. granulosum NCTC 11865 (resistance None)
Method: as §5, §6, §7, §8

P. granulosum PRP-043 = test: MIC assay; format: cell-based; conditions: P. granulosum PRP-043 (resistance MLS)
Method: as §5, §6, §7, §8

P. granulosum PRP-005 = test: MIC assay; format: cell-based; conditions: P. granulosum PRP-005 (resistance MLSK)
Method: as §5, §6, §7, §8

Compound | MBC (S. aureus CPHL EMRSA 16) [µg/mL] | MIC (P. acnes PRP-068) [µg/mL] | MIC (P. acnes PRP-102) [µg/mL] | MIC (P. acnes PRP-008) [µg/mL] | DDA [1] [mm] | DDA [2] [mm] | DDA [3] [mm] | DDA [4] [mm] | DDA [5] [mm] | DDA [6] [mm] | DDA [7] [mm] | DDA [8] [mm] | DDA [9] [mm] | DDA [10] [mm] | DDA [11] [mm] | MIC (P. granulosum NCTC 11865) [µg/mL] | MIC (P. granulosum PRP-043) [µg/mL] | MIC (P. granulosum PRP-005) [µg/mL] | also measured
O=C(OOC(=O)c1ccccc1)c1ccccc1 [benzoyl peroxide] | 250 (≈ 1030 µM) | 62.5 (≈ 258 µM) | 62.5 (≈ 258 µM) | 31.2 (≈ 129 µM) | 10.99 | 9.94 | 11.10 | 11.83 | 12.04 | 12.46 | 11.51 | 21.56 | 10.65 | 11.38 | 11.99 | 15.6 (≈ 64.4 µM) | 62.5 (≈ 258 µM) | 15.6 (≈ 64.4 µM) | MBC (S. aureus CPHL EMRSA 15): 125 to 250 µg/mL (≈ 516 to 1030 µM); MIC (E faecalis ATCC 29212; E faecalis ATCC 29212, read-out: MIC): > 250 µg/mL
CC(C)(C)c1cc(O)ccc1O [TBHQ, t-butyl hydroquinone] | 3.9 (≈ 23.5 µM) | 3.9 (≈ 23.5 µM) | 7.8 (≈ 46.9 µM) | 3.9 (≈ 23.5 µM) | 49.72 | 53.07 | 51.08 | 64.59 | 54.43 | 73.90 | 60.40 | 80.18 | 57.34 | 41.67 | 49.24 | 3.9 (≈ 23.5 µM) | 15.6 (≈ 93.9 µM) | 62.5 (≈ 376 µM) | MBC (S. aureus CPHL EMRSA 15; S. aureus CPHL EMRSA 15 (resistance Met/β-lactams), read-out: MBC): 3.9 µg/mL (≈ 23.5 µM); MIC (E faecalis ATCC 29212): 15.6 µg/mL
